# Experimental data reported in ChEMBL document CHEMBL1201862, “PubChem BioAssay data set” (2004).
# The source made the active and inactive calls.
# How the values were obtained:
# [1] = system: H9c2; experiment: cells; type: functional, cell-based; settings: Rattus norvegicus, H9c2, Myocardium;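 note: confirmatory concentration-response retest of ultra-high-throughput screening hits for modulation of myocardial damage; cell death induced by hydrogen peroxide oxidative stress; compound pretreatment for 60 min then peroxide exposure for 2 h; potency is for protecting the cells against peroxide damage rather than for killing them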
# [2] = cells; type: functional
# [3] = non-specific 3'UTR reporter inhibition in Clone20-Shn3RL – cell-based, Renilla luciferase, cherry-picked, counter-screen for Shn3 inhibitor project, dose response (AID 624133); type: functional
# [4] = loss of viability in HepG2 cells – cell-based, CellTiter-Glo, cherry-picked, cytotoxicity control for Shn3 inhibitor project, dose response (AID 624134); type: functional
# [5] = reduction of Shn3 3'UTR-driven luciferase in osteoblasts – cell-based, Clone20 osteoblasts, firefly luciferase, cherry-picked, dose response (AID 624132); type: functional;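 note: firefly luciferase luminescence from reporter carrying the Shn3 3'UTR in osteoblasts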
# [6] = fluconazole-exposed Candida albicans growth modulators – fluorescence, retest, confirmation (AID 2467); type: functional, cell-based
# [7] = system: P388; experiment: cells; type: functional
# [8] = system: P388/ADR; experiment: cells; type: functional; settings: Mus musculus
# [9] = system: SN12K1; experiment: cells; type: functional
SMILES,IC50 [1],"GI50 ([7]; Mus musculus, P388)",GI50 [8],"GI50 ([9]; Homo sapiens, SN12K1)",further results
CC(C)NC(=O)COC(=O)Cn1[nH]c(=O)c2ccccc2c1=O,16.4 µM (active),,,,
CC1Cc2ccccc2N1C(=O)COC(=O)c1nnc(O)c2ccccc12 (stereo not given),> 79 µM (inactive),,,,
COc1ccc(C(=O)Nc2nc(-c3ccccn3)cs2)cc1S(=O)(=O)N1CCOCC1,10.9 µM (active),,,,
CC1(C)CC2C1CCC1(O)CC2(C)CCC1N(O)c1ccc(C(=O)NCCO)cn1 (stereo not given),> 79 µM (inactive),,,,
COc1ccc(OC(=O)CCc2c[nH]c3ccccc23)cc1,,,,,IC50 [2]: 0.48 µM (active)
CC1Cc2ccccc2C(=O)N1 (stereo not given),12.5 µM (active),,,,
COc1cccc(CN(C)C(=O)c2cccc(S(=O)(=O)N3CCN(Cc4ccccc4)CC3)c2)c1OC,,,,,AC50 [3]: 8.32 µM (active); AC50 [4]: 63.3 µM (active); AC50 [5]: 4.94 µM (active)
O=C(COc1ccccc1)Nc1nnc(-c2ccc3c(c2)CCCC3)o1,,,,,IC50 [2]: 10.3 µM (active); EC50 [6]: 499 nM (active)
CCOC(=O)C(C)Oc1ccc(OCc2ccccc2)cc1 (stereo not given),,,,,IC50 [2]: 6.32 µM (active)
COc1cccc(C(c2nnnn2Cc2ccccc2)N2CCN(C3CCCC3)CC2)c1OC (stereo not given),> 79 µM (inactive),,,,
O=C(COc1cccc2c1CCNC2=O)NC1CCCCC1,> 79 µM (inactive),,,,
Cc1ccc(CNc2nc(NCC3CC3)nc3ccsc23)c(C)c1,,,,,AC50 [3]: 6.26 µM (active); AC50 [4]: 40.4 µM (active); AC50 [5]: 3.95 µM (active)
O=C(COc1cccc(F)c1)Nc1nc(-c2ccccn2)cs1,> 79 µM (inactive),,,,
O=S(=O)(CCBr)CCBr,,2.13 µM (inactive),2.84 µM (inactive),6.59 µM (inactive),
COc1ccc(OC)c(/C=N/NC(=O)c2cc3c(OC)c(OC)ccc3[nH]2)c1,> 79 µM (inactive),,,,
CC(=O)C(=O)NC1/C=C(C)\C=C/C(O)C/C=C(C)\C=C/C(O)CC2OC(=O)C1(C)C(=O)C2C (stereo not given),,10.4 µM (inactive),28.4 µM (inactive),> 100 µM (inactive),
CCN(CC)CCCOC(=O)/C=C/c1c(C)[nH]c(=O)[nH]c1=O,,> 625 µM (inactive),426 µM (inactive),> 625 µM (inactive),
Cc1c(/C=N/NC(=O)c2ccc(O)cc2)c2ccccn2c1C(=O)c1ccc(F)cc1,> 79 µM (inactive),,,,
CSc1nc(NC2OC(CO)C(O)C(O)C2O)c(N)c(=O)n1C (stereo not given),,> 100 µM (inactive),> 100 µM (inactive),> 100 µM (inactive),
O=C(N/N=C/C(Br)=C/c1ccccc1)c1cnccn1,,,,,IC50 [2]: 31.1 µM (active)
O=C(NCCCCCCNC(=O)n1cc(F)c(=O)[nH]c1=O)NCCCOCCOCCOCCOCCOCCOCCOCCOCCOCCOCCOCCOCCOCCOCCOCCOCCOCCOCCOCCOCCOCCCNC(=O)C(O)C(O)C(OC1OC(CO)C(O)C(O)C1O)C(O)CO (stereo not given),,0.566 µM (active),0.43 µM (active),6.46 µM (inactive),
C=C1CC(OC)(C(OC)C(=O)N(C)[C@H]2OCO[C@H]3C2O[C@H](C[C@@H](COC)OC)C(C)(C)C3OC)O[C@H](C)[C@@H]1C (stereo not given in full),,3.58 µM (inactive),5.58 µM (inactive),10.9 µM (inactive),
C[n+]1ccc(Nc2ccc(NC(=O)c3ccc(Nc4cc[n+](C)c5ccc([N+](=O)[O-])cc45)cc3[N+](=O)[O-])cc2)cc1,,,,,GI50 [7]: 0.617 µM (active); GI50 [9]: 23.4 µM (inactive)
COc1cccc2c1C(=N)c1c(O)c3c(c(O)c1C2=O)C[C@@](O)(C(C)=O)C[C@@H]3OC1CC(N)C(O)C(C)O1 (stereo not given in full),,0.000159 µM (active),0.000673 µM (active),0.124 µM (active),
CC(C)[C@](O)(C(=O)OCC1=CC[N+]2([O-])CC[C@@H](O)[C@@H]12)[C@H](C)O (stereo not given in full) [INDICINE N-OXIDE],,6490 µM (inactive),> 8990 µM (inactive),> 10000 µM (inactive),
COc1cc(O)c(Cc2ccccc2O)c(O)c1C(=O)CCc1ccccc1 [UVARETIN],,4.37 µM (inactive),5.38 µM (inactive),5.55 µM (inactive),
